The source of these data is ChEMBL document CHEMBL1153614, “Synthesis, spectral characterization, in-vitro microbiological evaluation and cytotoxic activities of novel macrocyclic bis hydrazone” (Eur J Med Chem, 2009).

One series concerns Micrococcus. Kind of series: Antibacterial activity against Micrococcus sp. at 10 ug/ml for 24 hrs by disc diffusion method. The class given is functional.
The test system of a further series is Escherichia coli. Description: Antibacterial activity against Escherichia coli at 10 ug/ml for 24 hrs by disc diffusion method. It counts as functional.
The subject of the next series is Staphylococcus aureus. Description: Antibacterial activity against Staphylococcus aureus at 10 ug/ml for 24 hrs by disc diffusion method. It counts as functional.
The subject of the next series is Shigella dysenteriae. Kind of series: Antibacterial activity against Shigella dysenteriae at 10 ug/ml for 24 hrs by disc diffusion method. It counts as functional.
The subject of another series is Bacillus subtilis. Description: Antibacterial activity against Bacillus subtilis at 10 ug/ml for 24 hrs by disc diffusion method. It counts as functional.
Another series concerns Bacillus cereus. Kind of series: Antibacterial activity against Bacillus cereus at 10 ug/ml for 24 hrs by disc diffusion method. The class given is functional.
The subject of a further series is Pseudomonas aeruginosa. Kind of series: Antibacterial activity against Pseudomonas aeruginosa at 10 ug/ml for 24 hrs by disc diffusion method. It counts as functional.
In another series the test system is Aspergillus niger. Kind of series: Antifungal activity against Aspergillus niger at 10 ug/ml for 48 hrs by disc diffusion method. The class given is functional.
Another series deals with Penicillium. Description: Antifungal activity against Penicillium at 10 ug/ml for 48 hrs by disc diffusion method. It counts as functional.
A further series deals with Candida albicans. Kind of series: Antifungal activity against Candida albicans at 10 ug/ml for 48 hrs by disc diffusion method. It counts as functional.
The subject of a further series is Artemia salina. Kind of series: Toxicity against Artemia salina. Conditions: in vivo. The class given is organism-based.

Take GENTAMICIN: the Activity in the series on Micrococcus, with Escherichia coli, with Staphylococcus aureus, with Shigella dysenteriae, with Bacillus subtilis and in the series with Bacillus cereus was 20 mm throughout. The Activity in the series with Pseudomonas aeruginosa turned out to be 20 mm.

As for `OC(Cn1cncn1)(Cn1cncn1)c1ccc(F)cc1F` [FLUCONAZOLE], the Activity in the series on Aspergillus niger, in the series with Penicillium and in the series on Candida albicans was 24 mm each time.

With `Cc1cc2c(O)c(c1)/C=N\NC(=O)c1ccc(cc1)C(=O)N/N=C\c1cc(O)c(cc1C)/C=N\NC(=O)c1ccc(cc1)C(=O)NN=C2`, the Activity stood at 14 mm with Micrococcus; 16 mm in the series with Escherichia coli; 10 mm with Staphylococcus aureus; 16 mm with Shigella dysenteriae; 20 mm with Bacillus subtilis; 16 mm with Bacillus cereus. Moreover, the Activity is reported as 14 mm with Pseudomonas aeruginosa; 22 mm in the series on Aspergillus niger; 20 mm in the series on Penicillium; 16 mm in the series on Candida albicans; “Non-toxic” in the series on Artemia salina.
